In paper PMC7582905, “Effect of Disulfide Cyclization of Ultrashort Cationic Lipopeptides on Antimicrobial Activity and Cytotoxicity” (International Journal of Molecular Sciences, 2020):

Tests used:
[1] = system: Candida albicans ATCC 10231; test: Transmission electron microscopy (TEM); type: cell-based; conditions: 2 × MIC, 5.0 × 10^6 CFU/mL, 1 h at room temperature
Procedure: TEM was used to examine ultrastructural changes in the Candida albicans ATCC 10231 cells treated with selected lipopeptides (L2, C2, L4, C4) and melittin (positive control). Fungal cells (Candida albicans ATCC 10231) were incubated in RMPI-1640 overnight. The cells were centrifuged (3500 rpm, 7 min) and resuspended in fresh RMPI-1640 medium to obtain dense cell suspension (5.0 × 10^6 CFU/mL). The high cell-density culture was prepared to facilitate TEM observations. Peptides’ concentrations were 2 × MIC. Samples were incubated for 1 h at room temperature. Importantly, MIC of selected peptides (L2, C2, L4, C4, and melittin) were also determined with dense inoculum of yeasts (5.0 × 10^6 CFU/mL). After the treatment, the fungal cells were centrifuged (3500× rpm, 10 min) and washed twice with PBS. Fungal cells were fixed with 2.5% glutaraldehyde buffered at pH 6.5 with 0.1 M sodium cacodylate (Polysciences, Warrington, PA, USA) for 6 h at room temperature. Postfixation was performed with a 1% osmium tetroxide (Polysciences, Warrington, PA, USA) solution for 2 h at 4 °C. The cells were then centrifuged and resuspended in 0.1 M cacodylate buffer (pH 6.5). After re-centrifugation, cells were dehydrated with ethanol. Yeasts were embedded in Epon 812 resin (Sigma-Aldrich) at room temperature. An ultramicrotome Leica UC7 was used to prepare ultrathin sections (55 nm). […]

C. albicans (ATCC 10231) = conditions: ref [5] Makovitzki et al.; cited from earlier work
Description: When a peptide is cyclic its antifungal activity is usually remarkably higher than that of the antibacterial activity as compared that of the linear parent molecules. The differences in antifungal and antibacterial (Gram-negative) activities between the cyclic and linear lipopeptides are statistically significant (p < 0.05). Makovitzki et al. have reported a high antimicrobial activity of C16-KKkK-NH2 (originally written as C16-KKKK-NH2; k/K—D-enantiomer) against P. aeruginosa, E. coli, and S. aureus (3–6.25 μM; approx. 2.3–4.8 μg/mL) being similar to that of lipopeptide 3. However, different ...

Row | Molecule | ultrastructural changes in TEM micrographs [1] | MIC C. albicans (ATCC 10231) (C. albicans (ATCC 10231)) [µM]
1 | CC[C@H](C)[C@H](NC(=O)CN)C(=O)NCC(=O)N[C@@H](C)C(=O)N[C@H](C(=O)N[C@@H](CC(C)C)C(=O)N[C@@H](CCCCN)C(=O)N[C@H](C(=O)N[C@@H](CC(C)C)C(=O)N[C@H](C(=O)N[C@H](C(=O)NCC(=O)N[C@@H](CC(C)C)C(=O)N1CCC[C@H]1C(=O)N[C@@H](C)C(=O)N[C@@H](CC(C)C)C(=O)N[C@H](C(=O)N[C@@H](CO)C(=O)N[C@@H](Cc1c[nH]c2ccccc12)C(=O)N[C@H](C(=O)N[C@@H](CCCCN)C(=O)N[C@@H](CCCNC(=N)N)C(=O)N[C@@H](CCCCN)C(=O)N[C@@H](CCCNC(=N)N)C(=O)N[C@@H](CCC(N)=O)C(=O)N[C@@H](CCC(N)=O)C(N)=O)[C@@H](C)CC)[C@@H](C)CC)[C@@H](C)O)[C@@H](C)O)C(C)C)C(C)C [melittin, Melittin, reference compound] | numerous vesicles are visible inside and outside the cell | –
2 | C16-KKkK-NH2 | – | 25
